Experiment: xn = mol fraction of the nth substance listed
Conditions: 81.5 kPa, Liquid; for speed of sound: Sing-around technique in a fixed-path interferometer; for mass density: Vibrating tube method

CCn1cc[n+](C)c1.F[B-](F)(F)F [1-ethyl-3-methylimidazolium tetrafluoroborate] + CC(=O)N(C)C
Conditions	mass density [kg/m3]	speed of sound [m/s]
293.15 K, x1 = 0.131	1020.02	1520.9
293.15 K, x1 = 0.198	1054.86	1544.9
293.15 K, x1 = 0.2976	1098.69	1566.5
293.15 K, x1 = 0.3868	1134.17	1581.8
293.15 K, x1 = 0.4734	1164.33	1594.3
293.15 K, x1 = 0.563	1190.97	1606.8
293.15 K, x1 = 0.7089	1230.24	1620
293.15 K, x1 = 0.7973	1244.59	1625.7
293.15 K, x1 = 0.8821	1257.25	1629.9
293.15 K, x1 = 1	1285.95	1640.4
298.15 K, x1 = 0.131	1015.67	1502.5
298.15 K, x1 = 0.198	1050.63	1527.6
298.15 K, x1 = 0.2976	1094.55	1550.4
298.15 K, x1 = 0.3868	1130.11	1566.4
298.15 K, x1 = 0.4734	1160.32	1579.8
298.15 K, x1 = 0.563	1187.07	1592.9
298.15 K, x1 = 0.7089	1226.34	1606.9
298.15 K, x1 = 0.7973	1240.73	1613
298.15 K, x1 = 0.8821	1253.4	1617.4
298.15 K, x1 = 1	1282.14	1628.4
303.15 K, x1 = 0.131	1011.32	1484.4
303.15 K, x1 = 0.198	1046.39	1510.4
303.15 K, x1 = 0.2976	1090.43	1534.3
303.15 K, x1 = 0.3868	1126.06	1551.3
303.15 K, x1 = 0.4734	1156.33	1565.3
303.15 K, x1 = 0.563	1183.16	1579.1
303.15 K, x1 = 0.7089	1222.46	1594.1
303.15 K, x1 = 0.7973	1236.88	1600.4
303.15 K, x1 = 0.8821	1249.55	1605.1
303.15 K, x1 = 1	1278.34	1616
308.15 K, x1 = 0.131	1006.92	1466.5
308.15 K, x1 = 0.198	1042.17	1493.4
308.15 K, x1 = 0.2976	1086.31	1518.5
308.15 K, x1 = 0.3868	1122.03	1536.2
308.15 K, x1 = 0.4734	1152.37	1551.1
308.15 K, x1 = 0.563	1179.25	1565.5
308.15 K, x1 = 0.7089	1218.61	1581.4
308.15 K, x1 = 0.7973	1233.06	1588
308.15 K, x1 = 0.8821	1245.73	1592.9
308.15 K, x1 = 1	1274.55	1604.9
313.15 K, x1 = 0.131	1002.63	1448.8
313.15 K, x1 = 0.198	1037.96	1476.5
313.15 K, x1 = 0.2976	1082.21	1502.7
313.15 K, x1 = 0.3868	1118	1521.4
313.15 K, x1 = 0.4734	1148.41	1536.9
313.15 K, x1 = 0.563	1175.34	1552.1
313.15 K, x1 = 0.7089	1214.78	1568.8
313.15 K, x1 = 0.7973	1229.25	1575.7
313.15 K, x1 = 0.8821	1241.92	1580.8
313.15 K, x1 = 1	1270.78	1593.4
318.15 K, x1 = 0.131	998.322	1431.2
318.15 K, x1 = 0.198	1033.75	1459.8
318.15 K, x1 = 0.2976	1078.11	1487.1
318.15 K, x1 = 0.3868	1113.98	1506.6
318.15 K, x1 = 0.4734	1144.47	1522.9
318.15 K, x1 = 0.563	1171.44	1538.7
318.15 K, x1 = 0.7089	1210.93	1556.3
318.15 K, x1 = 0.7973	1225.46	1563.5
318.15 K, x1 = 0.8821	1238.13	1568.9
318.15 K, x1 = 1	1267.03	1582
323.15 K, x1 = 0.131	994.081	1413.7
323.15 K, x1 = 0.198	1029.41	1443.1
323.15 K, x1 = 0.2976	1074.03	1471.6
323.15 K, x1 = 0.3868	1109.98	1491.9
323.15 K, x1 = 0.4734	1140.55	1509
323.15 K, x1 = 0.563	1167.54	1525.4
323.15 K, x1 = 0.7089	1207.14	1543.9
323.15 K, x1 = 0.7973	1221.69	1551.4
323.15 K, x1 = 0.8821	1234.36	1557
323.15 K, x1 = 1	1263.3	1570.6
328.15 K, x1 = 0.131	990.013	1396.4
328.15 K, x1 = 0.198	1025.2	1426.6
328.15 K, x1 = 0.2976	1069.95	1456.1
328.15 K, x1 = 0.3868	1105.98	1477.4
328.15 K, x1 = 0.4734	1136.62	1495.2
328.15 K, x1 = 0.563	1163.66	1512.2
328.15 K, x1 = 0.7089	1203.38	1531.6
328.15 K, x1 = 0.7973	1217.94	1539.4
328.15 K, x1 = 0.8821	1230.61	1545.3
328.15 K, x1 = 1	1259.58	1559.4
333.15 K, x1 = 0.131	986.018	1379
333.15 K, x1 = 0.198	1021.01	1410.2
333.15 K, x1 = 0.2976	1065.88	1440.9
333.15 K, x1 = 0.3868	1101.99	1462.9
333.15 K, x1 = 0.4734	1132.72	1481.5
333.15 K, x1 = 0.563	1159.8	1499.1
333.15 K, x1 = 0.7089	1199.69	1519.4
333.15 K, x1 = 0.7973	1214.19	1527.4
333.15 K, x1 = 0.8821	1226.87	1533.6
333.15 K, x1 = 1	1255.88	1548.2
338.15 K, x1 = 0.131	982.059	1361.9
338.15 K, x1 = 0.198	1016.81	1393.9
338.15 K, x1 = 0.2976	1061.83	1425.7
338.15 K, x1 = 0.3868	1098.01	1448.6
338.15 K, x1 = 0.4734	1128.83	1467.9
338.15 K, x1 = 0.563	1155.95	1486.1
338.15 K, x1 = 0.7089	1195.92	1507.3
338.15 K, x1 = 0.7973	1210.46	1515.6
338.15 K, x1 = 0.8821	1223.16	1528.1
338.15 K, x1 = 1	1252.2	1537.2
343.15 K, x1 = 0.131	978.076	1344.8
343.15 K, x1 = 0.198	1012.61	1377.7
343.15 K, x1 = 0.2976	1057.78	1410.6
343.15 K, x1 = 0.3868	1094.04	1434.4
343.15 K, x1 = 0.4734	1124.94	1454.4
343.15 K, x1 = 0.563	1152.06	1473
343.15 K, x1 = 0.7089	1192.22	1495.4
343.15 K, x1 = 0.7973	1206.75	1503.8
343.15 K, x1 = 0.8821	1219.46	1510.6
343.15 K, x1 = 1	1248.54	1526.2
